pIC50: −log10 of the molar value.
Assays:
Assay in all cases: cells
[1] = test system: MPP-89; assay type: functional, cell-based, Homo sapiens; details: Homo sapiens, MPP-89;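 also: growth inhibition of human MPP-89 cells, read out with a cell viability assay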
Description: SANGER: Inhibition of human MPP-89 cell growth in a cell viability assay.

[2] = test system: U-251; assay type: functional, cell-based, Homo sapiens; details: Homo sapiens, U-251;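 also: growth inhibition of human U-251 cells, read out through a cell viability assay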
Description: SANGER: Inhibition of human U251 cell growth in a cell viability assay.

[3] = test system: PF-382; assay type: functional, cell-based, Homo sapiens; details: Homo sapiens, PF-382
Description: SANGER: Inhibition of human PF-382 cell growth in a cell viability assay.

[4] = test system: EW-18; assay type: functional, cell-based, Homo sapiens; details: Homo sapiens, EW-18;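 also: growth inhibition of EW-18 cells, read out by a cell viability assay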
Description: SANGER: Inhibition of human EW-18 cell growth in a cell viability assay.

[5] = test system: SJRH30; assay type: functional, cell-based, Homo sapiens; details: Homo sapiens, SJRH30;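 also: growth inhibition of human SJRH30 cells, read out with a cell viability assay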
Description: SANGER: Inhibition of human SJRH30 cell growth in a cell viability assay.

[6] = test system: DJM-1; assay type: functional, cell-based, Homo sapiens; details: Homo sapiens, DJM-1;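 also: growth inhibition of human DJM-1 cells, read out by a cell viability assay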
Description: SANGER: Inhibition of human DJM-1 cell growth in a cell viability assay.

[7] = test system: MDA-MB-134-VI; assay type: functional, cell-based, Homo sapiens; details: Homo sapiens, MDA-MB-134-VI
Description: SANGER: Inhibition of human MDA-MB-134-VI cell growth in a cell viability assay.

[8] = test system: RCM-1; assay type: functional, cell-based, Homo sapiens; details: Homo sapiens, RCM-1;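 also: growth inhibition of the RCM-1 line, determined with a cell viability readout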
Description: SANGER: Inhibition of human RCM-1 cell growth in a cell viability assay.

[9] = test system: MHH-NB-11; assay type: functional, cell-based, Homo sapiens; details: Homo sapiens, MHH-NB-11;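 also: growth inhibition of human MHH-NB-11 cells, read out by a cell viability assay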
Description: SANGER: Inhibition of human MHH-NB-11 cell growth in a cell viability assay.

[10] = test system: SF-126; assay type: functional, cell-based, Homo sapiens; details: Homo sapiens, SF-126;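 also: growth inhibition of human SF126 cells, read out with a cell viability assay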
Description: SANGER: Inhibition of human SF126 cell growth in a cell viability assay.

[11] = test system: CAMA-1; assay type: functional, cell-based, Homo sapiens; details: Homo sapiens, CAMA-1;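 also: growth inhibition of CAMA-1 cells, read out with a cell viability assay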
Description: SANGER: Inhibition of human CAMA-1 cell growth in a cell viability assay.

[12] = test system: PA-1; assay type: functional, cell-based, Homo sapiens; details: Homo sapiens, PA-1;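 also: IC50 for suppression of PA-1 cell proliferation, determined with a cell viability read-out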
Description: SANGER: Inhibition of human PA-1 cell growth in a cell viability assay.

[13] = test system: U-87 MG; assay type: functional, cell-based, Homo sapiens, U-87MG ATCC; details: Homo sapiens, U-87 MG;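 also: growth inhibition of the cells measured with a viability assay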
Description: SANGER: Inhibition of human U-87-MG cell growth in a cell viability assay.

[14] = test system: EVSA-T; assay type: functional, cell-based, Homo sapiens; details: Homo sapiens, EVSA-T;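 also: growth inhibition of EVSA-T cells, read out with a cell viability assay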
Description: SANGER: Inhibition of human EVSA-T cell growth in a cell viability assay.

[15] = test system: ETK-1; assay type: functional, cell-based, Homo sapiens; details: Homo sapiens, ETK-1;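 also: growth inhibition of human ETK-1 cells, read out with a cell viability assay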
Description: SANGER: Inhibition of human ETK-1 cell growth in a cell viability assay.

[16] = test system: COR-L23; assay type: functional, cell-based, Homo sapiens; details: Homo sapiens, COR-L23;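 also: cell viability assay measuring how strongly compounds suppress growth of COR-L23 cells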
Description: SANGER: Inhibition of human COR-L23 cell growth in a cell viability assay.

[17] = test system: DMS-153; assay type: functional, cell-based, Homo sapiens; details: Homo sapiens, DMS-153
Description: SANGER: Inhibition of human DMS-153 cell growth in a cell viability assay.

[18] = test system: SJSA-1; assay type: functional, cell-based, Homo sapiens; details: Homo sapiens, SJSA-1;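 also: growth inhibition of human SJSA-1 cells, read out through a cell viability measurement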
Description: SANGER: Inhibition of human SJSA-1 cell growth in a cell viability assay.

[19] = test system: MFM-223; assay type: functional, cell-based, Homo sapiens; details: Homo sapiens, MFM-223
Description: SANGER: Inhibition of human MFM-223 cell growth in a cell viability assay.

[20] = test system: KM12; assay type: functional, cell-based, Homo sapiens; details: Homo sapiens, KM12;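 also: KM12 cell growth inhibition, read out with a cell viability assay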
Description: SANGER: Inhibition of human KM12 cell growth in a cell viability assay.

[21] = test system: CHP-212; assay type: functional, cell-based, Homo sapiens; details: Homo sapiens, CHP-212
Description: SANGER: Inhibition of human CHP-212 cell growth in a cell viability assay.

[22] = test system: CTB-1; assay type: functional, cell-based, Homo sapiens; details: Homo sapiens, CTB-1
Description: SANGER: Inhibition of human CTB-1 cell growth in a cell viability assay.

[23] = test system: CAL-85-1; assay type: functional, cell-based, Homo sapiens; details: Homo sapiens, CAL-85-1;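 also: growth inhibition of human CAL-85-1 cells, read out with a cell viability assay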
Description: SANGER: Inhibition of human CAL-85-1 cell growth in a cell viability assay.

[24] = test system: D-263MG; assay type: functional, cell-based, Homo sapiens; details: Homo sapiens, D-263MG
Description: SANGER: Inhibition of human D-263MG cell growth in a cell viability assay.

[25] = test system: RS4-11; assay type: functional, cell-based, Homo sapiens; details: Homo sapiens, RS4-11;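 also: growth inhibition of RS4-11 cells, read out by a cell viability assay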
Description: SANGER: Inhibition of human RS4-11 cell growth in a cell viability assay.

[26] = test system: Ca-Ski; assay type: functional, cell-based, Homo sapiens; details: Homo sapiens, Ca-Ski;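 also: cell viability assay measuring inhibition of Ca-Ski cell growth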
Description: SANGER: Inhibition of human Ca-Ski cell growth in a cell viability assay.

[27] = test system: SK-MEL-2; assay type: functional, cell-based, Homo sapiens; details: Homo sapiens, SK-MEL-2;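 also: growth inhibition of human SK-MEL-2 cells measured with a cell viability assay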
Description: SANGER: Inhibition of human SK-MEL-2 cell growth in a cell viability assay.

[28] = test system: KMS-12-PE; assay type: functional, cell-based, Homo sapiens; details: Homo sapiens, KMS-12-PE;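 also: growth inhibition of human KMS-12-PE cells, measured with a cell viability assay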
Description: SANGER: Inhibition of human KMS-12-PE cell growth in a cell viability assay.

[29] = test system: U-698-M; assay type: functional, cell-based, Homo sapiens; details: Homo sapiens, U-698-M
Description: SANGER: Inhibition of human U-698-M cell growth in a cell viability assay.

[30] = test system: BCPAP; assay type: functional, cell-based, Homo sapiens; details: Homo sapiens, BCPAP;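 also: growth inhibition of BCPAP cells, read out in a cell viability assay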
Description: SANGER: Inhibition of human BCPAP cell growth in a cell viability assay.

[31] = test system: MC-CAR; assay type: functional, cell-based, Homo sapiens; details: Homo sapiens, MC-CAR;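 also: growth inhibition of the human MC-CAR cell line, read out by a cell viability assay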
Description: SANGER: Inhibition of human MC-CAR cell growth in a cell viability assay.

[32] = test system: A-431; assay type: functional, cell-based, Homo sapiens; details: Homo sapiens, A-431;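 also: growth inhibition of A-431 cells, determined with a cell viability read-out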
Description: SANGER: Inhibition of human A431 cell growth in a cell viability assay.

[33] = test system: IMR-5; assay type: functional, cell-based, Homo sapiens; details: Homo sapiens, IMR-5;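 also: growth inhibition of human IMR-5 cells, read out with a cell viability assay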
Description: SANGER: Inhibition of human IMR-5 cell growth in a cell viability assay.

[34] = test system: NCI-H1522; assay type: functional, cell-based, Homo sapiens; details: Homo sapiens, NCI-H1522;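 also: growth inhibition of NCI-H1522 cells, read out with a cell viability assay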
Description: SANGER: Inhibition of human NCI-H1522 cell growth in a cell viability assay.

[35] = test system: UACC-812; assay type: functional, cell-based, Homo sapiens; details: Homo sapiens, UACC-812
Description: SANGER: Inhibition of human UACC-812 cell growth in a cell viability assay.

[36] = test system: RT-112; assay type: functional, cell-based, Homo sapiens; details: Homo sapiens, RT-112
Description: SANGER: Inhibition of human RT-112 cell growth in a cell viability assay.

[37] = test system: NY; assay type: functional, cell-based, Homo sapiens; details: Homo sapiens, NY
Description: SANGER: Inhibition of human NY cell growth in a cell viability assay.

[38] = test system: CAL-12T; assay type: functional, cell-based, Homo sapiens; details: Homo sapiens, CAL-12T;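 also: growth inhibition of human CAL-12T cells, read out with a cell viability assay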
Description: SANGER: Inhibition of human CAL-12T cell growth in a cell viability assay.

[39] = test system: Panc1005; assay type: functional, cell-based, Homo sapiens; details: Homo sapiens, Panc1005;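 also: growth inhibition of human PANC-10-05 cells, measured by a cell viability assay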
Description: SANGER: Inhibition of human PANC-10-05 cell growth in a cell viability assay.

[40] = test system: SIMA; assay type: functional, cell-based, Homo sapiens; details: Homo sapiens, SIMA;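 also: growth inhibition of SIMA cells, measured with a cell viability readout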
Description: SANGER: Inhibition of human SIMA cell growth in a cell viability assay.

[41] = test system: SK-MEL3; assay type: functional, cell-based, Homo sapiens, SK-MEL-3; details: Homo sapiens, SK-MEL3;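 also: growth inhibition of human SK-MEL-3 cells, read out with a cell viability assay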
Description: SANGER: Inhibition of human SK-MEL-3 cell growth in a cell viability assay.

[42] = test system: A2058; assay type: functional, cell-based, Homo sapiens; details: Homo sapiens, A2058;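 also: reduction of A2058 cell growth, read out with a viability assay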
Description: SANGER: Inhibition of human A2058 cell growth in a cell viability assay.

[43] = test system: NCI-H2087; assay type: functional, cell-based, Homo sapiens; details: Homo sapiens, NCI-H2087;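 also: growth inhibition determined with a cell viability readout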
Description: SANGER: Inhibition of human NCI-H2087 cell growth in a cell viability assay.

[44] = test system: SW1783; assay type: functional, cell-based, Homo sapiens; details: Homo sapiens, SW1783;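 also: cell growth inhibition measured with a viability assay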
Description: SANGER: Inhibition of human SW1783 cell growth in a cell viability assay.

[45] = test system: MFH-ino; assay type: functional, cell-based, Homo sapiens; details: Homo sapiens, MFH-ino;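 also: growth inhibition of human MFH-ino cells, read out by a cell viability assay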
Description: SANGER: Inhibition of human MFH-ino cell growth in a cell viability assay.

[46] = test system: HCC1569; assay type: functional, cell-based, Homo sapiens; details: Homo sapiens, HCC1569;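 also: growth inhibition of human HCC1569 cells, read out with a cell viability assay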
Description: SANGER: Inhibition of human HCC1569 cell growth in a cell viability assay.

[47] = test system: MHH-PREB-1; assay type: functional, cell-based, Homo sapiens; details: Homo sapiens, MHH-PREB-1;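 also: cell viability assay measuring inhibition of proliferation of human MHH-PREB-1 cells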
Description: SANGER: Inhibition of human MHH-PREB-1 cell growth in a cell viability assay.

[48] = test system: REH; assay type: functional, cell-based, Homo sapiens; details: Homo sapiens, REH;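 also: growth inhibition of REH cells determined with a cell viability read-out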
Description: SANGER: Inhibition of human REH cell growth in a cell viability assay.

SMILES: COc1cccc2c1C(=O)c1c(O)c3c(c(O)c1C2=O)C[C@@](O)(C(=O)CO)C[C@@H]3O[C@H]1C[C@H](N)[C@H](O)[C@H](C)O1 [DOXORUBICIN]
- pIC50 [1]: 6.41
- pIC50 [2]: 7.19
- pIC50 [3]: 7.17
- pIC50 [4]: 6.60
- pIC50 [5]: 6.76
- pIC50 [6]: 6.99
- pIC50 [7]: < 5.99
- pIC50 [8]: < 5.99
- pIC50 [9]: 6.66
- pIC50 [10]: 6.98
- pIC50 [11]: 6.80
- pIC50 [12]: 7.35
- pIC50 [13]: 6.46
- pIC50 [14]: < 5.99
- pIC50 [15]: 7.08
- pIC50 [16]: 7.50
- pIC50 [17]: 6.16
- pIC50 [18]: 6.95
- pIC50 [19]: < 5.99
- pIC50 [20]: 6.66
- pIC50 [21]: 7.46
- pIC50 [22]: 7.19
- pIC50 [23]: 7.35
- pIC50 [24]: 6.51
- pIC50 [25]: 7.72
- pIC50 [26]: 7.35
- pIC50 [27]: 6.64
- pIC50 [28]: 6.38
- pIC50 [29]: 6.86
- pIC50 [30]: 7.28
- pIC50 [31]: 7.31
- pIC50 [32]: 7.68
- pIC50 [33]: 7.46
- pIC50 [34]: < 5.99
- pIC50 [35]: < 5.99
- pIC50 [36]: 7.48
- pIC50 [37]: 6.64
- pIC50 [38]: 7.69
- pIC50 [39]: 7.05
- pIC50 [40]: 6.42
- pIC50 [41]: 6.83
- pIC50 [42]: 7.75
- pIC50 [43]: 7.31
- pIC50 [44]: 7.01
- pIC50 [45]: 8.40
- pIC50 [46]: 6.96
- pIC50 [47]: 6.64
- pIC50 [48]: 8.09

SMILES: Nc1ccn([C@@H]2O[C@H](CO)[C@@H](O)C2(F)F)c(=O)n1 [GEMCITABINE]
- pIC50 [1]: 6.16
- pIC50 [2]: 7.65
- pIC50 [3]: 7.35
- pIC50 [4]: 7.14
- pIC50 [5]: 6.97
- pIC50 [6]: 7.67
- pIC50 [7]: < 5.99
- pIC50 [8]: 6.18
- pIC50 [9]: 6.41
- pIC50 [10]: 8.15
- pIC50 [11]: 6.40
- pIC50 [12]: 8.05
- pIC50 [13]: 6.72
- pIC50 [14]: < 5.99
- pIC50 [15]: 8.09
- pIC50 [16]: 7.85
- pIC50 [17]: < 5.99
- pIC50 [18]: 6.71
- pIC50 [19]: < 5.99
- pIC50 [20]: 7.04
- pIC50 [21]: 8.56
- pIC50 [22]: 7.27
- pIC50 [23]: 6.84
- pIC50 [24]: < 5.99
- pIC50 [25]: > 8.40
- pIC50 [26]: 8.15
- pIC50 [27]: < 5.99
- pIC50 [28]: < 5.99
- pIC50 [29]: 6.46
- pIC50 [30]: 8.84
- pIC50 [31]: 7.94
- pIC50 [32]: > 8.40
- pIC50 [33]: 7.08
- pIC50 [34]: < 5.99
- pIC50 [35]: < 5.99
- pIC50 [36]: > 8.40
- pIC50 [37]: 7.52
- pIC50 [38]: 8.96
- pIC50 [39]: 7.81
- pIC50 [40]: 6.79
- pIC50 [41]: 6.98
- pIC50 [42]: 7.48
- pIC50 [43]: 8.67
- pIC50 [44]: > 8.40
- pIC50 [45]: 8.78
- pIC50 [46]: 6.96
- pIC50 [47]: 6.61
- pIC50 [48]: 7.84

Source: ChEMBL document CHEMBL1201861, “Genomics of Drug Sensitity in Cancer screening data, Wellcome Trust Sanger Institute”
